{"source": "patent US20210308211A1", "about": "“METHOD OF TREATING VIRAL INFECTIONS” (priority 2020, published 2021)", "key": {"C57BL/6 mice [1]": {"system": "C57BL/6 mice", "assay": "K/B×N serum transfer arthritis, curative protocol", "format": "in vivo, mouse", "protocol": "(§1) The TCR transgenic mice expressing the KRN and the MHC class II A^g7 molecule (K/B×N mice) have developed a severe inflammatory arthritis. The administration of serum of these mice to healthy recipient mice causes inflammatory arthritis over a period of about 15 days with a peak ignition around day 7 post-injection.\n(§2) Two mouse serum administrations from K/B×N were performed (day 0 and day 2). The injection of serum (100 μl/mouse) is performed by intra-peritoneal (ip) injection in mice C57BL/6 (or B6) for 8 weeks (n=10); untreated mouse (n=10).\n(§3) The P140 peptide (100 μg/100 μl; iv retro-orbital) was administered as follows:\n(§4) Curative treatment: Injection at day 1 and day 4, to guide the peak of inflammatory disease. Preventive treatment: Injection at day −7 and day −2. Bleeding S0 (at day 0) is followed by bloodletting conducted every six days to dispose of serum. The study ends when inflammation has returned to its basal level, to around day 20 (see FIG. 19).\n(§5) During the peak of inflammation, every day the animals are evaluated, and swelling score of articulation is established. It is ranged from 0 to 4 and based on a joint observation of the animal. In practice, this score is given for each leg (4 values) and these values are added together to get a general score that ranges from 0 to 16 (FIG. 20)."}, "CD4+ T splenocytes": {"system": "CD4+ T splenocytes", "assay": "Collagen-induced arthritis (CIA) DBA/1 mice, ex vivo T splenocyte proliferation with CII (CFSE, FACS)", "format": "in vivo, mouse", "protocol": "Next, P140 peptide was administered in a model of mice that develop a RA-like disease (we anticipated to use this mouse model as a negative control of MRL/lpr-lupus prone mice). This model, called collagen-induced arthritis (CIA) mouse model, is the most commonly studied autoimmune model of RA. In this model, autoimmune arthritis is induced by immunizing DBA/1 mice with an emulsion of complete Freund's adjuvant (CFA) and type II collagen (CII), and typically, the first signs of arthritis appear in 21-28 days after immunization (Brand et al., 2007). CIA shares several pathological features with human RA, and CII is a major protein in cartilage, the target tissue of RA. Pathological features include synovial hyperplasia, mononuclear cell infiltration, and cartilage degradation. Susceptibility in these mice is linked to the expression of specific MHC class II genes, DBA/1 have H-2^q haplotype.\nP140 peptide was thus administrated intravenously to DBA/1 mice at day −1, +7, +14 and +20 in a setting close to the one we used in MRL/lpr mice (100 μg/injection/mouse). CII in CFA was injected at days +1 and +21 (200 μg, intradermal route). Mouse weight and their clinical score were followed using very classical procedure. Biological parameters were also evaluated (i.e. T cell response, antibody response, joint histology, etc)."}, "[2]": {"system": "peripheral T cells from lupus patients", "settings": "cited from earlier work"}, "C57BL/6 mice [3]": {"system": "C57BL/6 mice", "assay": "K/B×N serum transfer arthritis, preventive protocol", "format": "in vivo, mouse", "protocol": "as §1, §2, §3, §4, §5"}, "Balb/c mice": {"system": "Balb/c mice", "assay": "31-day HDM-induced asthma model, airway response to methacholine (Flexivent)", "format": "in vivo, mouse", "settings": "for Crs / Ers / Rrs: per mouse", "protocol": "The aim of this study was to evaluate the effect of the P140 phosphopeptide administered systemically (intravenously) in a 31-day model of HDM-induced asthma in mice. The P140 phosphopeptide was solubilized in sterile water (Braun) and 10x concentrate sterile saline was added to adjust osmolarity to 300 mosm. Osmolarity was controlled with a micro osmometer (Löser, type 15) and validated (303 mosm). The P140 phosphopeptide was used in vivo at the dose of 4 mg/kg by intravenous (i.v.) routes. Control animals received equivalent volumes (2 ml/kg) of saline (Table 8).\nNine-week-old male Balb/c mice were sensitized by intranasal (i.n.) administration of HDM extract (Stallergenes): 1 μg in 25 μl saline on days 0, 1, 2, 3, 4, and 10 μg on days 14 and 21. Mice were challenged by i.n. administration of HDM (1 μg) and/or saline on days 28, 29 and 30. Mice were treated by i.v. injection (2 ml/kg) of P140 or solvent on day 25 (see FIG. 12).\nAirway response to Methacholine (Flexivent®). On day 31, airway responses to PBS then methacholine were assessed using a forced oscillation technique (Flexivent®, SCIREQ, Montreal, Canada) as described (Daubeuf et al, Bioprotocol, 645, 2013). Mice were anesthetized with an intraperitoneal injection of xylasine (Rompun®; 1 mg/kg), followed fifteen minutes later by an intraperitoneal injection of pentobarbital sodium (3.64 mg/Kg). The trachea was exposed and an 18-gauge metal needle was inserted into the trachea. Airways were connected to a computer-controlled small animal ventilator, and quasi-sinusoidally ventilated with a tidal volume of 10 ml/Kg at a frequency of 150 breaths/min and a positive end-expiratory pressure of 2 cm H2O to achieve a mean respiratory volume close to that of spontaneous breathing. After baseline measurement, each mouse was challenged for 10 sec with an aerosol of PBS generated with an in-line nebulizer and administered directly through the ventilator. Then, aerosolized methacholine (MCh) at 50 mg/ml was administered for 10 sec. The effect of methacholine was calculated as the peak response, i.e. the mean of the three maximal values integrated for calculation of airway resistance (R, cm H20·s·mL^−1), elastance (E, cm H20·mL^−1) and compliance (C, mL·cm H20^−1).\nAll mice were sensitized to HDM on days 0, 1, 2, 3, 4, 14, 21, and challenged either with saline ([…]) or HDM (challenge with allergen). Results are presented as means±SEM. Differences between groups were tested for statistical significance using Student's t test for inflammatory cells and a two-way ANOVA followed by Bonferroni post-test for airway responses."}, "[4]": {"settings": "chronic asthma, methacholine 50 mg/ml, P140 i.v. 4 mg/kg day 25, p<0.05"}, "[5]": {"settings": "HDM + P140 (HDM-challenged), first unlabelled sub-column (presumably PBS/baseline)"}, "[6]": {"settings": "HDM + P140 (HDM-challenged), second unlabelled sub-column (presumably MCh 50 mg/mL)"}, "[7]": {"settings": "P140, saline-challenged (chronic asthma), first unlabelled sub-column (presumably PBS/baseline)"}, "[8]": {"settings": "P140, saline-challenged (chronic asthma), second unlabelled sub-column (presumably MCh 50 mg/mL)"}}, "note": "“And” between values parts separate entries of the source, which are not always exact repeats. Equal entries are not always repeated. Non-standard residues stand in square brackets, D forms with d. Residues, ends and D or L forms follow the SMILES beside them. pS = N[C@@H](COP(=O)(O)O)C(=O)O", "data": [{"smiles": "CC[C@H](C)[C@H](NC(=O)[C@H](Cc1ccccc1)NC(=O)[C@H](C)NC(=O)[C@H](Cc1ccc(O)cc1)NC(=O)CNC(=O)[C@H](CCCNC(=N)N)NC(=O)[C@@H]1CCCN1C(=O)[C@H](CCCCN)NC(=O)CNC(=O)[C@H](COP(=O)(O)O)NC(=O)[C@H](CCCNC(=N)N)NC(=O)[C@H](CCCCN)NC(=O)[C@H](CO)NC(=O)[C@H](Cc1ccc(O)cc1)NC(=O)[C@@H](NC(=O)[C@H](CCSC)NC(=O)[C@H](Cc1c[nH]cn1)NC(=O)[C@@H](NC(=O)[C@@H](N)CCCNC(=N)N)[C@@H](C)CC)C(C)C)C(=O)N[C@@H](CCC(=O)O)C(=O)N[C@@H](Cc1ccc(O)cc1)C(=O)O", "note": "[Compound P140] (H-RIHMVYSKR[pS]GKPRGYAFIEY-OH; N-terminus and C-terminus assumed)", "values": [{"measurement": "Weight loss", "setting": "C57BL/6 mice [1]; curative protocol (injection day 1 and day 4), from day 2, NaCl 10%", "result": 15, "unit": "%"}, {"measurement": "Weight gain", "setting": "C57BL/6 mice [1]; curative protocol, between day 5 and the end of the study, controls 5%", "result": 20, "unit": "%"}, {"measurement": "Inflammation score, maximum", "setting": "C57BL/6 mice [1]; curative protocol, per rear leg, same for controls", "result": "~1.5"}, {"measurement": "CD4+ T splenocytes proliferation", "setting": "CD4+ T splenocytes; DBA/1 CIA mice, 100 μg/injection i.v. day −1, +7, +14, +20, ex vivo 100 μg CII/mL", "result": "strongly diminished"}, {"measurement": "CD8+ T cells proliferation", "setting": "CD4+ T splenocytes; same conditions as CD4+ T cells", "result": "No effect"}, {"measurement": "Proliferation of peripheral T cells from lupus patients", "setting": "[2]; ex vivo (Monneaux et al., 2005)", "result": "does not induce proliferation"}, {"measurement": "Secretion of regulatory cytokine IL-10 in cell cultures", "setting": "[2]; ex vivo, T cells from lupus patients (Monneaux et al., 2005)", "result": "high levels"}, {"measurement": "Clinical signs (swelling joints, weight loss, inflammation score) (in words)", "setting": "C57BL/6 mice [3]; K/B×N model", "result": "tend to be attenuated"}, {"measurement": "Weight loss", "setting": "C57BL/6 mice [3]; preventive protocol (injection day −7 and day −2), day 1 to day 7, controls 10%", "result": 5, "unit": "%"}, {"measurement": "Increase in size of joints, right back legs", "setting": "C57BL/6 mice [3]; preventive protocol, day 0 to day 7, control mice about 22%", "result": "around 12%"}, {"measurement": "Increase in size of the joint, left hind paws", "setting": "C57BL/6 mice [3]; preventive protocol, day 0 to day 7, controls about 30%", "result": "about 15%"}, {"measurement": "General inflammation score, maximum", "setting": "C57BL/6 mice [3]; preventive protocol, sum of four legs, controls around 7, p=0.0156", "result": "≤ 5"}, {"measurement": "Increase in size of articulation, left front leg", "setting": "C57BL/6 mice [3]; preventive protocol, controls 45%, P=0.0397", "result": 20, "unit": "%"}, {"measurement": "Swelling in the joints of right front leg", "setting": "C57BL/6 mice [3]; preventive protocol, controls nearly 45%, p=0.0069", "result": "+20%"}, {"measurement": "Airway resistance, elastance or compliance (in words)", "setting": "Balb/c mice; allergen (HDM)-challenged mice, compared to the solvent group", "result": "no effect"}, {"measurement": "Airway resistance, change vs solvent group", "setting": "Balb/c mice; chronic asthma, methacholine 50 mg/ml, P140 i.v. 4 mg/kg day 25, non-significant (n=5)", "result": "−42", "unit": "%"}, {"measurement": "Airway compliance, change vs solvent group", "setting": "Balb/c mice; [4]", "result": "+115%"}, {"measurement": "Elastance, change vs solvent group", "setting": "Balb/c mice; [4]", "result": "−65", "unit": "%"}, {"measurement": "Crs", "setting": "Balb/c mice; [5]", "result": "0.0554 mL/cmH2O and 0.0514 mL/cmH2O and 0.0528 mL/cmH2O and 0.0566 mL/cmH2O and 0.0492 mL/cmH2O and 0.0458 mL/cmH2O and 0.0552 mL/cmH2O and 0.0589 mL/cmH2O"}, {"measurement": "Ers", "setting": "Balb/c mice; [5]", "result": "18.0582 cmH2O/mL and 19.4433 cmH2O/mL and 18.9515 cmH2O/mL and 17.6781 cmH2O/mL and 20.3326 cmH2O/mL and 21.8367 cmH2O/mL and 18.1106 cmH2O/mL and 16.9723 cmH2O/mL"}, {"measurement": "Rrs", "setting": "Balb/c mice; [5]", "result": "0.6405 cmH2O.s/mL and 0.6092 cmH2O.s/mL and 0.7972 cmH2O.s/mL and 0.5185 cmH2O.s/mL and 0.6804 cmH2O.s/mL and 0.6365 cmH2O.s/mL and 0.4744 cmH2O.s/mL and 0.5456 cmH2O.s/mL"}, {"measurement": "Crs", "setting": "Balb/c mice; [6]", "result": "0.0146 mL/cmH2O and 0.0075 mL/cmH2O and 0.0062 mL/cmH2O and 0.0065 mL/cmH2O and 0.0101 mL/cmH2O and 0.0060 mL/cmH2O and 0.0138 mL/cmH2O and 0.0081 mL/cmH2O"}, {"measurement": "Ers", "setting": "Balb/c mice; [6]", "result": "79.8018 cmH2O/mL and 148.4985 cmH2O/mL and 188.1151 cmH2O/mL and 219.9720 cmH2O/mL and 125.7688 cmH2O/mL and 173.4582 cmH2O/mL and 72.6033 cmH2O/mL and 131.8035 cmH2O/mL"}, {"measurement": "Rrs", "setting": "Balb/c mice; [6]", "result": "5.6421 cmH2O.s/mL and 10.3886 cmH2O.s/mL and 11.9654 cmH2O.s/mL and 10.5419 cmH2O.s/mL and 8.8810 cmH2O.s/mL and 13.0087 cmH2O.s/mL and 7.0705 cmH2O.s/mL and 9.7688 cmH2O.s/mL"}, {"measurement": "Rrs", "setting": "Balb/c mice; P140, saline-challenged (chronic asthma)", "result": "0.5590 cmH2O.s/mL and 0.8945 cmH2O.s/mL and 0.5926 cmH2O.s/mL and 0.8074 cmH2O.s/mL and 0.4418 cmH2O.s/mL"}, {"measurement": "Crs", "setting": "Balb/c mice; [7]", "result": "0.0545 mL/cmH2O and 0.0498 mL/cmH2O and 0.0569 mL/cmH2O and 0.0541 mL/cmH2O and 0.0650 mL/cmH2O"}, {"measurement": "Ers", "setting": "Balb/c mice; [7]", "result": "18.3671 cmH2O/mL and 20.0811 cmH2O/mL and 17.5777 cmH2O/mL and 18.4893 cmH2O/mL and 15.3975 cmH2O/mL"}, {"measurement": "Crs", "setting": "Balb/c mice; [8]", "result": "0.0304 mL/cmH2O and 0.0132 mL/cmH2O and 0.0380 mL/cmH2O and 0.0238 mL/cmH2O and 0.0370 mL/cmH2O"}, {"measurement": "Ers", "setting": "Balb/c mice; [8]", "result": "33.3720 cmH2O/mL and 84.9688 cmH2O/mL and 26.3200 cmH2O/mL and 42.4174 cmH2O/mL and 28.6047 cmH2O/mL"}, {"measurement": "Rrs", "setting": "Balb/c mice; [8]", "result": "4.1067 cmH2O.s/mL and 9.4002 cmH2O.s/mL and 2.2229 cmH2O.s/mL and 4.0926 cmH2O.s/mL and 2.1844 cmH2O.s/mL"}, {"measurement": "Baseline airway resistance, elastance and compliance after PBS inhalation (in words)", "setting": "Balb/c mice; saline-challenged mice, i.v. 4 mg/kg day 25, compared to solvent-treated mice", "result": "no effect"}]}]}
